Data on 2 molecules can be found in patent publication US5959178A, “Modification of lignin synthesis in plants” (Imperial Chemical Industries PLC, priority 1991, dated 1999).

The target in this assay is T1, purified poplar OMT (Populus trichocarpa x Populus deltoides, UniProt Q9LWB8).
T1 construct: closely related isoforms co-purify
The assay is described as follows: Specific activity of the purified poplar OMT towards O-diphenolic substrates. Format: biochemical. The protocol: The specific activity of the purified OMT towards three different O-diphenolic substrates was measured. Using catechol, caffeic acid, and hydroxyferulic acid as substrate, we found an OMT activity of 0, 30, and 15 nkat/mg protein, respectively.

T1 sequence (Q9LWB8 entry or part of it T91I): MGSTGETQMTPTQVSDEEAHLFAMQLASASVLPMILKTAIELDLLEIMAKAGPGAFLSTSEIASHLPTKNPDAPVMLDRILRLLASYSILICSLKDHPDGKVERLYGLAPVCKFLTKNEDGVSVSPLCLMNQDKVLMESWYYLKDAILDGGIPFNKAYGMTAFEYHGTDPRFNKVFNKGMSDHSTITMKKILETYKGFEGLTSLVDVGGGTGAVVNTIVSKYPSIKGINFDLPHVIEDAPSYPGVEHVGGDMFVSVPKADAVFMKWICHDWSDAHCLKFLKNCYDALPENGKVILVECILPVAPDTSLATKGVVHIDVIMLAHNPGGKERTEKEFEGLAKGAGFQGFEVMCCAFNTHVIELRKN

With `O=C(O)/C=C/c1ccc(O)c(O)c1` [caffeic acid], the “OMT activity (specific activity) with compound as substrate” value came to 30 nkat/mg protein.

As for `Oc1ccccc1O` [catechol], the “OMT activity (specific activity) with compound as substrate” value was determined as 0 nkat/mg protein.
